Measurements: publication PMC8152814, “The modulatory role of sulfated and non-sulfated small molecule heparan sulfate-glycomimetics in endothelial dysfunction: absolute structural clarification, molecular docking and simulated dynamics, SAR analyses and ADMET studies” (RSC Medicinal Chemistry, 2021)

Columns and labels:
Assay type in all cases: cell-based, human
Details in all cases: averaged % of increase (+) or decrease (−) compared to control (FFA induced oxidatively stressed endothelial cells), n = 3
[1] = system: NADPH oxidase; assay: NADPH oxidase activity (lucigenin chemiluminescence) in cell homogenates; set-up: concentration or dose not given beside the values
Excerpt: (§1) The assays focused on the production of nitric oxide (NO) and the upregulation of nitric oxide synthase (eNOS), the production of reactive oxygen species (ROS) and the activity of nicotinamide adenine dinucleotide phosphate (NADPH) oxidase (Table 2). From the hypothesised model of heparan sulfate-glycomimetic activity,[17] the glycomimetics are proposed to attenuate the binding of HGF to the cMET receptor. This disruption to MET-receptor activation is proposed to modulate intracellular phosphorylation leading to an upregulation of eNOS and increased output of extracellular NO. […] Overall, the cross examination of NO output and reduction of ROS was used to determine the therapeutic action of the triaged glycomimetics α-4, R-10, S-10 and β-5, as well as 3 non-sulfated intermediates α-2, α-3 and β-3, on free fatty acid (FFA) induced, oxidatively stressed endothelial cell cultures (Table 2).
(§2) Biological assay and AMDET experimental details […]
(§3) Preparation of FFA-albumin complexes and cell treatments
(§4) To generate the in vitro model of oxidative stress, sodium palmitate was bound to bovine serum albumin (BSA) as outlined by Chavez and Summers,S2 with modifications. Sodium palmitate (FFA) was dissolved in EtOH at 60 °C and diluted 1:100 in M199 media supplemented with 2% fatty acid-free bovine serum albumin (BSA) and incubated for 1 h at 37 °C. HepG2 cells were treated with 1 μmol/L of the synthesized HS-glycomimetics in the presence of palmitate (100 μmol/L) for 3 h or pre-treated with glycomimetics for 12 h followed by 3 h palmitate (100 μmol/L). Control cells were incubated in serum free M199 containing 2% (wt/vol) fatty acid-free BSA. […]
(§5) H2DCFDA, Sigma) for 30 min at 37 °C, and the level of fluorescence was determined (excitation 490 nm; emission 540 nm) using a microplate reader (BioTek).
(§6) The level of NADPH-enhanced superoxide anions (O2•−) in HepG2 homogenates was determined by lucigenin-enhanced chemiluminescence.S4 Following the various treatment conditions, cells were homogenized in a buffer (20 mmol/L H2KPO4 and 1 mmol/L EDTA supplemented with aprotinin, leuprotinin, pepstatin and PMSF). The total protein quantified using the Bicinchoninic acid (BCA) assay (Pierce Biotechnology). To 50 μg of total protein, NADPH (100 μmol/L) was added in a total volume of 500 μL, with lucigenin (5 μmol/L) and was injected automatically. Activity was determined by measuring luminescence over 200 s in a scintillation counter (Lumat LB 9507, Berthold, Germany). Basal values of NADPH oxidase activity were subtracted from the experimental values and expressed as RLU/min/μg protein […]
(§7) In situ quantification of ROS species
(§8) Superoxide dismutase (SOD) and catalase (CAT) activity assays, and in situ detection of vascular ROS content. The activity of the enzymes, SOD and CAT, was determined in cell homogenates using assay kits according to the manufacturer's instructions (Cayman; Cat No 706002 and 707002 respectively). A unit of SOD was defined as the amount of enzyme […]
(§9) Similarly, a unit of CAT was […]
(§10) defined as the amount required to form 1.0 nmol of formaldehyde per min at 25 °C.S5

[2] = system: eNOS; assay: eNOS phosphorylation (Western blot) in FFA-stressed cells
Excerpt: as §1, §2, §3, §4
HepG2 wells were lysed in RIPA buffer containing proteinase inhibitors and the total protein was quantified using BCA protein assay kit (Pierce Biotechnology). Proteins (30 μg/well) were denatured and separated by sodium dodecyl sulfate (SDS)-polyacrylamide gel electrophoresis and transferred to polyvinylidene difluoride (PVDF) membranes. Blots were blocked for 1 h in 5% semi-skimmed milk/Tris-Buffered Saline Tween-20 (TBS-T), probed with primary rabbit anti-phospho-protein kinase B (Akt), rabbit anti-Akt (Santa Cruz Biotechnology), rabbit polyclonal anti-phospho-eNOS (Cell Signaling) overnight at 4 °C followed by washing and incubation with the corresponding horse radish peroxidase-labelled secondary antibody for 1 h at room temperature. After washing with TBS-T, membranes were incubated with ECL reagent and visualized (Amersham Pharmacia Biotech). Densitometry analysis using ImageJ© (version 1.32j, NIH) was used to quantify the protein signal.S7 […]
(typically 0.01 M phosphate buffered saline pH 7.4) so that the final DMSO concentration is 1 % and the final test compound concentrations are 1, 3, 10, 30 and 100 µM. The experiment is performed at 37 °C and each concentration is incubated in 7 replicate wells. The plates are incubated for 2 h at 37 °C before the absorbance is measured at 620nm. Nicardipine (pH dependent) and pyrene (pH independent) are included as control compounds. The solubility is estimated from the concentration of test compound that produces an increase in absorbance above vehicle control (1% DMSO in buffer).

[3] = system: reactive oxygen species (ROS); assay: ROS production in FFA-stressed cells
Excerpt: as §1, §2, §3
(§11) To generate the in vitro model of oxidative stress, sodium palmitate was bound to bovine serum albumin (BSA) as outlined by Chavez and Summers,S2 with modifications. Sodium palmitate (FFA) was dissolved in EtOH at 60 °C and diluted 1:100 in M199 media supplemented with 2% fatty acid-free bovine serum albumin (BSA) and incubated for 1 h at 37 °C. HepG2 cells were treated with 1 μmol/L of the synthesized HS-glycomimetics in the presence of palmitate (100 μmol/L) for 3 h or pre-treated with glycomimetics for 12 h followed by 3 h palmitate (100 μmol/L). Control cells were incubated in serum free M199 containing 2% (wt/vol) fatty acid-free BSA.
NO release assay and Quantification of ROS production […]
The auto-fluorescence was subtracted from each value. Cells were incubated with 10 μmol/L of the fluorescent probe: 2′-7′-dichlorodihydrofluorescein diacetate (CM-H2DCFDA, Sigma) for 30 min at 37 °C, and the level of fluorescence was determined (excitation 490 nm; emission 540 nm) using a microplate reader (BioTek).
as §6, §7, §8, §9
defined as the amount required to form 1.0 nmol of formaldehyde per min at 25 °C.S5 […]
HepG2 cells were incubated in serum-free DMEM containing 2% fatty acid-free BSA (control) or palmitate conjugated BSA (100 μmol/L) in the presence of HS-glycomimetics (1 or 10 μmol/L) for 24 h. The cells were incubated for 30 min in Hepes-buffered solution containing 10 μmol/L dihydroethidium (DHE), which intercalates with DNA in the presence of ROS and is detectable by fluorescence. Cells were counterstained with the nuclear stain DAPI at 0.3 μmol/L. In the following 24 h, the cell cultures were examined using a fluorescence microscope (Leica DMIRB). Sections were photographed and fluorescence was quantified using ImageJ. […]

[4] = system: nitric oxide (NO); assay: NO release assay (DAF-2) in FFA-stressed cells
Excerpt: as §1, §2, §3, §11
NO release assay and Quantification of ROS production
NO release was determined using diaminofluorescein-2 (DAF-2).S3 The cells were washed with PBS and incubated with L-arginine (100 μmol/L in PBS) for 5 min at 37 °C before incubation with DAF-2 (0.1 μmol/L) for 2 min, followed by the calcium ionophore calimycin (A23187, 1 μmol L) for 30 min. L-NAME (100 μmol/L), a nitric oxide inhibitor (NOS), was also added 20 min before the addition of L-arginine in some experiments to determine the involvement of NOS. DAF-2 fluorescence (arbitrary units, AU) was quantified using a microplate reader (BioTek) with excitation and emission wavelengths of 485 nm and 540 nm, respectively. The auto-fluorescence was subtracted from each value. […]
as §5, §6, §7, §8, §9, §10

| SMILES | NADPH oxidase activity [1] [%] | eNOS phosphorylation [2] | ROS production [3] [%] | NO production [4] |
| --- | --- | --- | --- | --- |
| O=C(O)c1cc(OCC(O)CO)ccc1OCC(O)CO (mixture of isomers) [β-3, sodium 5-((S)-2,3-dihydroxypropoxy)-2-((±)-2,3-dihydroxypropoxy)benzoate] | −27 | +294% | −19 | +52% |
| O=C(O)c1cc(OCC(O)CO)ccc1OCC(O)CO (mixture of isomers) [α-3, sodium 5-((R)-2,3-dihydroxypropoxy)-2-((±)-2,3-dihydroxypropoxy)benzoate] | −21 | +312% | −23 | +41% |
| COC(=O)c1cc(OC[C@H](O)CO)ccc1OC[C@@H](O)CO (mixture of isomers) [α-2, methyl 5-((R)-2,3-dihydroxypropoxy)-2-((S)-2,3-dihydroxypropoxy)benzoate] | −26 | +286% | −36 | +46% |
